# Source: US10584115B2, “Substituted pyridine and pyrazine BMI-1 inhibitors” (PTC Therapeutics, Inc., priority 2013, dated 2020)
# Structures can show the parent of a compound that is named as a salt. Where two headings read alike, the source gives them in different places.
# Tested on: Bmi-1 protein
# Experiment: Sandwich ELISA Assay (Bmi-1 protein level in HT-1080 cells after compound treatment)
# Format: cell-based
# How it was run: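 Sandwich ELISA quantified Bmi-1 protein against recombinant standard (125–8000 pg/mL), with lysates captured overnight at 4 °C and signal by HRP/TMB at 450 nm (570 nm reference). Lysates came from HT-1080 cells incubated 40–48 h with test compounds in 0.5% DMSO.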
# [1] = Table 1, Bmi-1 sandwich ELISA, read-out: ELISA EC50 value for Bmi-1 protein
# [2] = read-out: ELISA EC50 value for Bmi-1 protein, Table 1, Bmi-1 sandwich ELISA
Compound,EC50 [1] [nM],EC50 [2] [nM]
"O=[N+]([O-])c1cc(Nc2ccc(OC(F)F)cc2)nc(-c2c(C(F)(F)F)nc3ccccn23)c1 [compound 169, N-[4-(difluoromethoxy)phenyl]-4-nitro-6-[2-(trifluoromethyl)imidazo[1,2-a]pyridin-3-yl]pyridin-2-amine]",10 to 100,–
"COc1cc(Nc2ccc(C(F)(F)F)cc2)nc(-c2c(C(F)(F)F)nc3ccccn23)c1 [Cpd 107, 4-methoxy-6-[2-(trifluoromethyl)imidazo[1,2-a]pyridin-3-yl]-N-[4-(trifluoromethyl)phenyl]pyridin-2-amine]",100 to 3000,–
"Cc1nc(C(F)(F)F)cn1-c1cncc(Nc2ccc(C(F)(F)F)cc2)n1 [compound 303, 6-[2-methyl-4-(trifluoromethyl)-1H-imidazol-1-yl]-N-[4-(trifluoromethyl)phenyl]pyrazin-2-amine]",100 to 3000,–
"COc1ccc2nc(C)c(-c3cc(C#N)cc(Nc4ccc(C)cc4)n3)n2c1 [compound 673, 2-(6-methoxy-2-methylimidazo[1,2-a]pyridin-3-yl)-6-[(4-methylphenyl)amino]pyridine-4-carbonitrile]",100 to 3000,–
"Cc1nc2cc(F)c(F)cc2n1-c1cncc(Nc2ccc(OC(F)(F)F)cc2)n1 [compound 266, 6-(5,6-difluoro-2-methyl-1H-benzimidazol-1-yl)-N-[4-(trifluoromethoxy)phenyl]pyrazin-2-amine]",10 to 100,–
"FC(F)(F)Sc1ccc(Nc2cncc(-c3c(C(F)(F)F)nc4ccccn34)n2)cc1 [compound 211, 6-[2-(trifluoromethyl)imidazo[1,2-a]pyridin-3-yl]-N-{4-[(trifluoromethyl)sulfanyl]phenyl}pyrazin-2-amine]",100 to 3000,–
"Cc1ccc(Nc2cc(C#N)cc(-n3c(C)nc4cc(F)c(F)cc43)n2)cc1 [compound 599, 2-(5,6-difluoro-2-methyl-1H-benzimidazol-1-yl)-6-[(4-methylphenyl)amino]pyridine-4-carbonitrile]",10 to 100,–
"Cc1nc2ccc(F)cc2n1-c1cccc(Nc2ccc(C#N)cc2)n1 [Cpd 609, 4-{[6-(6-fluoro-2-methyl-1H-benzimidazol-1-yl)pyridin-2-yl]amino}benzonitrile]",100 to 3000,–
"N#Cc1cc(Nc2ccc(C(F)(F)F)cc2)nc(-n2c(C3CC3)nc3ncc(F)cc32)c1 [compound 490, 2-(2-cyclopropyl-6-fluoro-1H-imidazo[4,5-b]pyridin-1-yl)-6-{[4-(trifluoromethyl)phenyl]amino}pyridine-4-carbonitrile]",10 to 100,–
"CCc1nn(C)c(CC)c1-c1cncc(Nc2ccc(OC(F)F)cc2)n1 [compound 333, 6-(3,5-diethyl-1-methyl-1H-pyrazol-4-yl)-N-[4-(difluoromethoxy)phenyl]pyrazin-2-amine]",1 to 10,–
"N#Cc1nc2ccccc2n1-c1cncc(Nc2ccc(C(F)(F)F)cc2)n1 [compound 157, 1-(6-{[4-(trifluoromethyl)phenyl]amino}pyrazin-2-yl)-1H-benzimidazole-2-carbonitrile]",100 to 3000,–
"COc1ccc(Nc2cncc(-c3c(C)nn4ccccc34)n2)cc1 [compound 565, N-(4-methoxyphenyl)-6-(2-methylpyrazolo[1,5-a]pyridin-3-yl)pyrazin-2-amine]",< 1,–
"N#Cc1cc(Nc2ccc(OC(F)F)cc2)nc(-c2c(C(F)(F)F)nc3n2CCCC3)c1 [Cpd 237, 2-{[4-(difluoromethoxy)phenyl]amino}-6-[2-(trifluoromethyl)-5,6,7,8-tetrahydroimidazo[1,2-a]pyridin-3-yl]pyridine-4-carbonitrile]",1 to 10,–
"COc1ccc2nc(C(F)(F)F)c(-c3cccc(Nc4ccc(OC(F)F)cc4)n3)n2c1 [compound 103, N-[4-(difluoromethoxy)phenyl]-6-[6-methoxy-2-(trifluoromethyl)imidazo[1,2-a]pyridin-3-yl]pyridin-2-amine]",10 to 100,–
"COc1cccc(Nc2cncc(-n3c(C)nc4cc(F)c(F)cc43)n2)c1 [compound 578, 6-(5,6-difluoro-2-methyl-1H-benzimidazol-1-yl)-N-(3-methoxyphenyl)pyrazin-2-amine]",100 to 3000,–
"N#Cc1cc(Nc2ccc(OC(F)(F)F)cc2)nc(-c2c(C(F)(F)F)nc3n2CCCC3)c1 [Cpd 238, 2-{[4-(trifluoromethoxy)phenyl]amino}-6-[2-(trifluoromethyl)-5,6,7,8-tetrahydroimidazo[1,2-a]pyridin-3-yl]pyridine-4-carbonitrile]",100 to 3000,–
"CCc1nc2ccccc2n1-c1cc(N)cc(Nc2ccc(C(F)(F)F)cc2)n1 [compound 510, 6-(2-ethyl-1H-benzimidazol-1-yl)-N^2-[4-(trifluoromethyl)phenyl]pyridine-2,4-diamine]",10 to 100,–
"COc1ccc2nc(C(F)(F)F)c(-c3cccc(Nc4ccc(OC=O)cc4)n3)n2c1 [compound 112, 4-({6-[6-methoxy-2-(trifluoromethyl)imidazo[1,2-a]pyridin-3-yl]pyridin-2-yl}amino)phenyl formate]",100 to 3000,–
"N#Cc1cc(Nc2ccc(C(F)(F)F)cc2)nc(-c2c(C(F)(F)F)nc3n2CCCC3)c1 [Cpd 236, 2-{[4-(trifluoromethyl)phenyl]amino}-6-[2-(trifluoromethyl)-5,6,7,8-tetrahydroimidazo[1,2-a]pyridin-3-yl]pyridine-4-carbonitrile]",–,10 to 100
"FC(F)(F)c1ccc(Nc2cncc(-c3c(C4CC4)nc4ncccn34)n2)cc1 [compound 422, 6-(2-cyclopropylimidazo[1,2-a]pyrimidin-3-yl)-N-[4-(trifluoromethyl)phenyl]pyrazin-2-amine]",10 to 100,–
CCc1nc(C)c(-c2cncc(Nc3ccc(C(F)(F)F)cc3)n2)n1Cc1ccccc1 [compound 126],100 to 3000,–
"COc1ccc(Nc2cc(N)cc(-n3c(C)nc4ccccc43)n2)cc1 [compound 580, N^2-(4-methoxyphenyl)-6-(2-methyl-1H-benzimidazol-1-yl)pyridine-2,4-diamine]",10 to 100,–
"FC(F)Oc1ccc(Nc2cncc(-c3c(C(F)(F)F)nc4cnccn34)n2)cc1 [compound 142, N-[4-(difluoromethoxy)phenyl]-6-[2-(trifluoromethyl)imidazo[1,2-a]pyrazin-3-yl]pyrazin-2-amine]",10 to 100,–
"Cc1nc2ncncc2n1-c1cncc(Nc2ccc(C(F)(F)F)cc2)n1 [compound 371, 6-(8-methyl-7H-purin-7-yl)-N-[4-(trifluoromethyl)phenyl]pyrazin-2-amine]",100 to 3000,–
"CCc1nc2ncc(Nc3ccc(OC(F)F)c(F)c3)cc2n1-c1cncc(Nc2ccc(OC(F)F)c(F)c2)n1 [compound 550, N-[4-(difluoromethoxy)-3-fluorophenyl]-1-(6-{[4-(difluoromethoxy)-3-fluorophenyl]amino}pyrazin-2-yl)-2-ethyl-1H-imidazo[4,5-b]pyridin-6-amine]",100 to 3000,–
"Cc1nc2cc(Cl)c(Cl)cc2n1-c1cncc(Nc2ccc(C(F)(F)F)cc2)n1 [compound 193, 6-(5,6-dichloro-2-methyl-1H-benzimidazol-1-yl)-N-[4-(trifluoromethyl)phenyl]pyrazin-2-amine]",10 to 100,–
"Cc1nn2ccccc2c1-c1cc(C#N)cc(Nc2ccc(C(F)(F)F)cc2)n1 [compound 511, 2-(2-methylpyrazolo[1,5-a]pyridin-3-yl)-6-{[4-(trifluoromethyl)phenyl]amino}pyridine-4-carbonitrile]",–,10 to 100
